Reference: article PMC11436758, “Computer-aided drug design to generate a unique antibiotic family” (Nature Communications, 2024)
In brackets after ≈: the same amount, converted by molar mass.

Key:
Format in all cases: cell-based
K. pneumoniae = experiment: FIC checkerboard testing with colistin (FICI); details: in combination with colistin
Description: For FIC testing, test ranges were set based on broth microdilution MIC test data. The wells of a standard 96-well microdilution plate (Costar) were filled with 150 μL of water in columns 2 through 12. A 300 μL aliquot of colistin at 40X the highest final concentration to be tested was added to each well in Column 1 of the plate. The Biomek 2000 was used to make eleven 2-fold serial dilutions in the “combination agent parental” plate from columns 2 through 11. The wells of the “test-agent parental” plate were filled with 150 μL of DMSO in rows B through H. Row A of this plate was filled with 300 μL of the DNM compound stock solution at 40X the highest final concentration to be tested. Serial 2-fold dilutions were then prepared from row B-G by hand using a multichannel pipette. The “daughter plates” were loaded with 180 μL of CAMHB using the Multidrop 384. The Biomek FX was used to transfer 5 μL of colistin from each well of the comparator parental plate to the corresponding well in all the daughter plates in a single step. Then a 5 μL aliquot from each well of the test agent parental plate was transferred by hand into the corresponding well of the daughter plate. Row H and Column 12 each contained serial dilutions of test agent and the combination agent alone, respectively, for determination of the MIC. This procedure was repeated for all test agents evaluated in combination with comparators. A standardized inoculum of each organism was prepared per CLSI methods. Colonies were picked from the primary plate and a suspension was prepared to equal a 0.5 McFarland turbidity standard. The suspensions were additionally diluted 1:20 in broth. A 10 μL standardized inoculum was delivered into each well using the Biomek 2000 from low to high concentration. These inoculations yielded a final cell concentration in the daughter plates of […]. Thus, the wells of the daughter plates ultimately contained […], 5 μL of test agent, 5 μL of the colistin, and 10 μL of inoculum. […] Plates were covered with a lid on the top plate, placed in plastic bags, and incubated at 35 °C for ~18 h. Plates were viewed from the bottom using a plate viewer. Prepared reading sheets were marked for the MIC of the combination agent, the MIC of test agent, and the wells of the growth-no growth interface for wells containing test agent and combination agent at varying ratios. […] For each relevant row of the panel, the FIC index (FICI) and mean FICI was calculated by: FICdrug A/MICdrug A + FICdrug B/MICdrug B = FIC index (FICI). The mean FICI for the combination was interpreted as follows: <0.5 = synergy, >0.5–4 = additive/indifferent, and >4 = antagonism. Microbiological measurements were performed and evaluated with Micromyx LLC (Kalamazoo, MI, USA).

E. coli ATCC 25922 = experiment: MIC alone and MIC of colistin in combination with DNM compounds; details: compound alone, bracket after colistin value is a range (0.25-2)
Description: (§1) The medium employed for the assay was Mueller Hinton II Broth (MHB II; Becton-Dickinson, Sparks, MD, USA). Agar plates used for the organisms were trypticase soy agar plus 5% sheep blood (BD; Sparks, MD, USA). MIC assay plates were prepared using the CLSI broth microdilution procedure. Automated liquid handlers (Multidrop 384, Biomek 2000 and Biomek FX) were used to conduct serial dilutions and liquid transfers. A standardized inoculum of each organism was prepared per CLSI methods. Suspensions were prepared to equal a 0.5 McFarland standard, followed by a 1:20 dilution in test media. The inocula were dispensed into sterile reservoirs divided by length (Beckman Colter) and the Biomek 2000 was used to inoculate the plates. Daughter plates were placed on the Biomek 2000 work surface in reverse orientation so that inoculation took place from low to high drug concentration. The Biomek 2000 delivered 10 μL of the diluted suspension into each well. These inoculations yielded a final cell concentration in the daughter plates of ~5 × 10^5 colony-forming units/mL in each well. The wells of the daughter plates ultimately contained 185 μL of broth, 5 μL of drug solution, and 10 μL of bacterial inoculum. Plates were covered with a sterile lid on the top plate, placed in plastic bags, and incubated at 35 °C for ~18 h. The microplates were viewed from the bottom using a plate viewer and the MIC was read. The MIC was recorded as the lowest concentration of drug that inhibited visible growth of the organism. Uninoculated solubility control plates were also observed for evidence of drug precipitation.
(§2) Compound K. pneumoniae A. baumannii E. coli P. aeruginosa […]
(§3) Supplementary Table 3. Minimum inhibitory concentration (MIC; µg/ml) of DNM
(§4) compounds that show potential synergy in combination with colistin. […]

P. aeruginosa ATCC 27853 = experiment: as above; details: compound alone, bracket after colistin value is a range (0.25-4)
Description: as §1, §2, §3, §4

K. pneumoniae MMX8390 = experiment: as above; details: compound alone
Description: as §1, §2, §3, §4

A. baumannii ATCC 19606 = experiment: as above; details: compound alone
Description: as §1, §2, §3, §4

HEK293 cells = experiment: in vitro
Description: (§5) Stock solutions of the test agents were prepared in DMSO (40 mg/mL) and stored at −20 °C until use. AlamarBlue HS™ cell viability reagent was acquired from Invitrogen (Cat # A50100, Carlsbad, CA). COS7 and HEK293 cells (obtained from ATCC) were cultured and tested at 37 °C in a 5% CO2/100% humidity environment in DMEM media supplemented with 10% fetal bovine serum. Cells were trypsinized, centrifuged, resuspended in cell media, counted on a hemacytometer, and diluted to an appropriate cell density to give the desired number of cells per 300 μl media. Cells were then loaded into 48-well cell culture plates (3548; Corning, Inc.); 300 μl/well at 60,000 cells per well. The cell density was determined in preliminary tests to give linear AlamarBlue HS™ readings over a 3.5 h period for HEK293 cells and 2 h period for COS7 cells after 2 days of growth; 2 wells per plate were loaded with 300 μl/well of cell-free media to provide background readings. Plates were cultured overnight, after which test agent solutions were prepared in media at the highest test concentration (100 ug/mL) and at five serial dilutions, each containing 0.25% DMSO and 0.125% Kolliphor® EL (Cat# 27963, Sigma Aldrich). The compounds concentrations were then loaded in separate columns via 300 μl/well. […] Normalized values representing the amount of AlamarBlue converted to its […] form were calculated for each well using background-corrected absorbances as described by the Alamar-Blue HS protocol information packet available from Invitrogen Technical Support. The fraction of control viability for each agent concentration with each cell line was then determined by the ratio of normalized values for the treated wells to the control wells. […] Values were determined by linear interpolation of fraction of control growth against concentration for the test agent concentrations.

COS7 cells = experiment: in vitro; details: COS7 cells
Description: as §5

Cc1cc(Cl)ccc1-c1cc(C(N)=O)sc1-c1ccc(Cl)cc1C [DNM0652]
Mean FICI (K. pneumoniae; K. pneumoniae (ATCC 13883)): 0.19
Mean FICI (K. pneumoniae; K. pneumoniae (FDA-CDC AR-BANK0040)): 0.41
Mean FICI (K. pneumoniae; K. pneumoniae (FDA-CDC AR-BANK0046)): 0.4
Mean FICI (K. pneumoniae; K. pneumoniae (FDA-CDC AR-BANK0047)): 0.3
Mean FICI (K. pneumoniae; K. pneumoniae (FDA-CDC AR-BANK0087)): 0.38
Mean FICI (K. pneumoniae; K. pneumoniae (FDA-CDC AR-BANK0097)): 0.34
Mean FICI (K. pneumoniae; K. pneumoniae (FDA-CDC AR-BANK0106)): 0.32
Mean FICI (K. pneumoniae; K. pneumoniae (FDA-CDC AR-BANK0109)): 0.35
Mean FICI (K. pneumoniae; K. pneumoniae (FDA-CDC AR-BANK0125)): 0.32
Mean FICI (K. pneumoniae; K. pneumoniae (FDA-CDC AR-BANK0364)): 0.29
Mean FICI (K. pneumoniae; K. pneumoniae (FDA-CDC AR-BANK0454)): 0.28
interpretation of mean FICI (K. pneumoniae; each strain of the Klebsiella panel): Synergy
MIC (E. coli ATCC 25922): > 64 µg/mL
MIC (P. aeruginosa ATCC 27853): > 64 µg/mL
MIC (K. pneumoniae MMX8390): > 64 µg/mL
MIC (A. baumannii ATCC 19606): > 64 µg/mL
LC50 (HEK293 cells; HEK293 cells, 24 h): 35 µg/mL (≈ 93 µM)
IC50 (cell viability) (HEK293 cells; Hek293 cells, 24 hrs): 35.256 µg/mL (≈ 93.7 µM)
Log IC50 (cell viability) (HEK293 cells; Hek293 cells, 24 hrs): 4.547
LC50 (COS7 cells; 24 h): 37 µg/mL (≈ 98.3 µM)
IC50 (cell viability) (COS7 cells; 24 hrs): 37.434 µg/mL (≈ 99.5 µM)
